From patent US9340590B2 (priority 2011, dated 2016)
pIC50: −log10 of the molar value. Positions of bridges follow the written chain, without caps; N, C: chain ends. Non-standard residues stand in square brackets, D forms with d. Residues, ends and D or L forms follow the SMILES beside them. Phe(4-NH2) = Nc1ccc(C[C@H](N)C(=O)O)cc1; 3Pal = N[C@@H](Cc1cccnc1)C(=O)O

How the values were obtained:
Assay in all cases: cell-based
hNav1.7 = hNav1.7 (Homo sapiens, UniProt Q15858); assay type: cell-based; settings: IonWorks Quattro, use-dependent block, hNav1.7; read-out: IWQ Use Nav1.7
hNav1.3 = hNav1.3 (Homo sapiens, UniProt Q9NY46); settings: IonWorks Quattro, use-dependent block, hNav1.3; read-out: IWQ Use Nav1.3
hNav1.5 = hNav1.5 (Homo sapiens, UniProt Q14524); settings: IonWorks Quattro, use-dependent block, hNav1.5; read-out: IWQ Use Nav1.5
Chain of hNav1.5 (Q14524 whole entry, looked up): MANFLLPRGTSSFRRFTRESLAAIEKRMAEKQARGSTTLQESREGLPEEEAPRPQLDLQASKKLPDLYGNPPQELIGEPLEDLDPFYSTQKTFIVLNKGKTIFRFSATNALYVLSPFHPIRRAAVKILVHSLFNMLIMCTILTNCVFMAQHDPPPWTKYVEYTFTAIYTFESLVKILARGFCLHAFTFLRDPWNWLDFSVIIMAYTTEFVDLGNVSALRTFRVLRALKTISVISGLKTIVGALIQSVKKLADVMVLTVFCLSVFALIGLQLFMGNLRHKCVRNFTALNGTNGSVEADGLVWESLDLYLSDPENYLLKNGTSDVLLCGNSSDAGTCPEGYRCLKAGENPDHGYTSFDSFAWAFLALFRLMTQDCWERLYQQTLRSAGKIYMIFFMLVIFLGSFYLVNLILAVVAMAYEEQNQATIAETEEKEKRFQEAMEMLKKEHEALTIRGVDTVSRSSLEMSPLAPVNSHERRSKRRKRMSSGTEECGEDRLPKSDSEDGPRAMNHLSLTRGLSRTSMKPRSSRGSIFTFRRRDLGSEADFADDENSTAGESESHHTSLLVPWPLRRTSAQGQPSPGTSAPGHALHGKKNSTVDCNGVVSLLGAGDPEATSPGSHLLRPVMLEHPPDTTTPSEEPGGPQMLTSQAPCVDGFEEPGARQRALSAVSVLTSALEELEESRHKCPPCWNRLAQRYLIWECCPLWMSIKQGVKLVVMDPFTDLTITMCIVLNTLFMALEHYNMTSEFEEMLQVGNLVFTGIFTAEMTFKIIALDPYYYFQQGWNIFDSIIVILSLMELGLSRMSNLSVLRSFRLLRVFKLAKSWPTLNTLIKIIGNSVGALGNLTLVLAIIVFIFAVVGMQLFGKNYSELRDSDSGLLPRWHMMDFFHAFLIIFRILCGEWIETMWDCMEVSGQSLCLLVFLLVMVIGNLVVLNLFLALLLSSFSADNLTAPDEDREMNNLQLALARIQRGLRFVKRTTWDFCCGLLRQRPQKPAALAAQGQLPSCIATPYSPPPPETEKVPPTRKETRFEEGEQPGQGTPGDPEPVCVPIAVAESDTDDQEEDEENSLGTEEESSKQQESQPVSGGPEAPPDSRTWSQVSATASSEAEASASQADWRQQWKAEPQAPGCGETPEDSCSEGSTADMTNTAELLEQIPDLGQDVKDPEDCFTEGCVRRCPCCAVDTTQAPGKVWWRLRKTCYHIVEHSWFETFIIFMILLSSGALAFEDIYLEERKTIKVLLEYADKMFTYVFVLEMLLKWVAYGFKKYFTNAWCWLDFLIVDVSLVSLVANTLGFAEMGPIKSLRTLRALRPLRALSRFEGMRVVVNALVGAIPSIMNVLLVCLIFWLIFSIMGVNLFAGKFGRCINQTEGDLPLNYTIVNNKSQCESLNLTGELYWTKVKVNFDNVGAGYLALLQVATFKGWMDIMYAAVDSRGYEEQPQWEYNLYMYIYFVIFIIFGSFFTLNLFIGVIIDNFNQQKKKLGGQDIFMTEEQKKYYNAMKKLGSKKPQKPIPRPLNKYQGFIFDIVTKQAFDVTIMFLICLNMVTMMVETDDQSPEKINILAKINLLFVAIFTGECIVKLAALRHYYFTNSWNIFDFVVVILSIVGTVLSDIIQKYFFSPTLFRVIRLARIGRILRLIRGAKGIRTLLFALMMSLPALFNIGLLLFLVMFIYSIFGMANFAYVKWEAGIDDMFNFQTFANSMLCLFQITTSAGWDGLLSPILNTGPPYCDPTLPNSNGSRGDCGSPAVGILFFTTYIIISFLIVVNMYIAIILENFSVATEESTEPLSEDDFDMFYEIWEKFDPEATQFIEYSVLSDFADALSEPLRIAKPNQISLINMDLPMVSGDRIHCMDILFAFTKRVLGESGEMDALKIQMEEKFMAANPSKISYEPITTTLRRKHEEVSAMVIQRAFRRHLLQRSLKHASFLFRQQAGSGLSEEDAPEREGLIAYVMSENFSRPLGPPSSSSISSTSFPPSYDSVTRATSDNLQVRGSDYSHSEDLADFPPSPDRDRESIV

Chain of hNav1.3 (Q9NY46 whole entry, looked up): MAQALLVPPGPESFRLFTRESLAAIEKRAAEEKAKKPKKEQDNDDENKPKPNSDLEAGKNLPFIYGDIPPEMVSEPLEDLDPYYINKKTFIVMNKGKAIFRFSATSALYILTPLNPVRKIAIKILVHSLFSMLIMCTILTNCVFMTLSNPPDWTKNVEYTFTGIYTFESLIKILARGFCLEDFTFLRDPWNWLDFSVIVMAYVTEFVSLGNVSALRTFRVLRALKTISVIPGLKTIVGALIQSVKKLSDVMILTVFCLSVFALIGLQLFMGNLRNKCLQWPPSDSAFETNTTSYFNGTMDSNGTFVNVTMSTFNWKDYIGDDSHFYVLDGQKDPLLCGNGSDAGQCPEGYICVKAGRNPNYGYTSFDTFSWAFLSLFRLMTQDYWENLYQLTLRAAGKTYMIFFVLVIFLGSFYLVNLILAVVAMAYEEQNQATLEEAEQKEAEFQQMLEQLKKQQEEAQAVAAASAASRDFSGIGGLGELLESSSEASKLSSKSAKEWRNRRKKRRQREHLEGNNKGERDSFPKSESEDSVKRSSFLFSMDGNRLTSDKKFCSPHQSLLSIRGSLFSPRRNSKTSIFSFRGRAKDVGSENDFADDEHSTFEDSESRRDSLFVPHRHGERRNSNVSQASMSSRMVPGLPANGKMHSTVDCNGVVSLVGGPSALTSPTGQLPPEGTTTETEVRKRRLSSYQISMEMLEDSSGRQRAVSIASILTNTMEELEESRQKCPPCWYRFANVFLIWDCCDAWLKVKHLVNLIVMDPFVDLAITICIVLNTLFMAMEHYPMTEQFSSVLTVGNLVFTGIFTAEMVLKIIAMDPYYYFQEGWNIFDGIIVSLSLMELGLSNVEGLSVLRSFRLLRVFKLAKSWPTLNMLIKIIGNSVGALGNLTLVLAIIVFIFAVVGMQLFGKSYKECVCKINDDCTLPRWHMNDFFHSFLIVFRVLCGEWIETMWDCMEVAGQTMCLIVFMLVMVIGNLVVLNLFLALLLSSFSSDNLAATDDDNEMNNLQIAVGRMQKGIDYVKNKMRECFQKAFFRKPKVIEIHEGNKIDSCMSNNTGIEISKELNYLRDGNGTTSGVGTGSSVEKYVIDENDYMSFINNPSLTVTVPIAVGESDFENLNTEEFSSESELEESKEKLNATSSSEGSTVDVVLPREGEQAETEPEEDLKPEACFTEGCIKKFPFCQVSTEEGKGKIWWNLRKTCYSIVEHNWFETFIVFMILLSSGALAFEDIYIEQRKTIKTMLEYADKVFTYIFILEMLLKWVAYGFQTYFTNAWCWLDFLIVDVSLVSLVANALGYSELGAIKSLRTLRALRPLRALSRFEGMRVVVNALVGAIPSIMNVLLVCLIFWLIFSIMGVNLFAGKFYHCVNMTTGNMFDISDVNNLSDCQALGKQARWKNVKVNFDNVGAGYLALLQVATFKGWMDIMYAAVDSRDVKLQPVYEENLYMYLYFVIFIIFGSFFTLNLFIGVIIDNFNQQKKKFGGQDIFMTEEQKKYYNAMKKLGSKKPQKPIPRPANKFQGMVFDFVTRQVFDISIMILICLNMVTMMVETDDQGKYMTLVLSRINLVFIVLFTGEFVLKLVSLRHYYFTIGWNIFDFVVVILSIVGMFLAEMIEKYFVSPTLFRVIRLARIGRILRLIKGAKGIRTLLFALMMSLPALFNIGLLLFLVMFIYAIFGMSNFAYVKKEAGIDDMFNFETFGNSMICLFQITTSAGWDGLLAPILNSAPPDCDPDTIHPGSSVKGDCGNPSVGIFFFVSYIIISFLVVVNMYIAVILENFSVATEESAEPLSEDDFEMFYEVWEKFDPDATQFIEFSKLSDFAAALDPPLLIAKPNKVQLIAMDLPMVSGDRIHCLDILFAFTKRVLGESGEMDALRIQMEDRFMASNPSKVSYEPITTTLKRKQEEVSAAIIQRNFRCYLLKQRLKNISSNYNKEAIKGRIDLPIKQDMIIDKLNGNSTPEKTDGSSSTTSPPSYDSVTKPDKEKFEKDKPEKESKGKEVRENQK

| Structure (SMILES) | pIC50 (hNav1.7) | pIC50 (hNav1.3) | pIC50 (hNav1.5) |
| --- | --- | --- | --- |
| CC[C@H](C)[C@@H]1NC(=O)[C@@H]2CSSC[C@@H]3NC(=O)[C@H](C(C)C)NC(=O)[C@H](CC(C)C)NC(=O)[C@H](CC(N)=O)NC(=O)[C@@H]4CCCN4C(=O)[C@H](CCCNC(=N)N)NC(=O)[C@H](CSSC[C@H](NC(=O)[C@@H](N)CC(=O)O)C(=O)N[C@@H](CC(C)C)C(=O)NCC(=O)N[C@@H](C)C(=O)N[C@@H](CCSC)C(=O)N[C@@H](CCCNC(=N)N)C(=O)N[C@@H](CCCCN)C(=O)N2)NC(=O)[C@H](CSSC[C@@H](C(=O)N[C@@H](CCCCN)C(=O)N[C@@H](Cc2ccc(O)cc2)C(=O)N[C@H](C(=O)N[C@@H](Cc2ccccc2)C(N)=O)C(C)C)NC(=O)[C@H](Cc2c[nH]c4ccccc24)NC(=O)[C@H](Cc2c[nH]cn2)NC(=O)[C@H](Cc2c[nH]cn2)NC(=O)[C@H]([C@@H](C)O)NC(=O)[C@H](CCCNC(=N)N)NC(=O)[C@H](CO)NC3=O)NC(=O)[C@H](CCCCN)NC(=O)[C@H](CC(=O)O)NC(=O)[C@H](CC(N)=O)NC(=O)[C@H](CC(=O)O)NC(=O)[C@@H]2CCCN2C1=O [compound 737] (H-DCLGAMRKCIPDNDKCCRPNLVCSRTHHWCKYVF-NH2; disulfide 2-17, 9-23, 16-30) | 6.40 | 5.80 | 4.72 |
| CC[C@H](C)[C@@H]1NC(=O)[C@@H]2CSSC[C@@H]3NC(=O)[C@H](C(C)C)NC(=O)[C@H](CC(C)C)NC(=O)[C@H](CC(N)=O)NC(=O)[C@@H]4CCCN4C(=O)[C@H](CCCNC(=N)N)NC(=O)[C@H](CSSC[C@H](NC(=O)[C@@H](N)CC(=O)O)C(=O)N[C@@H](CC(C)C)C(=O)NCC(=O)N[C@@H](C)C(=O)N[C@@H](CCSC)C(=O)N[C@@H](CCCNC(=N)N)C(=O)N[C@@H](CCCCN)C(=O)N2)NC(=O)[C@H](CSSC[C@@H](C(=O)N[C@@H](CCCCN)C(=O)N[C@@H](Cc2ccc(O)cc2)C(=O)N[C@H](C(=O)N[C@@H](Cc2ccccc2)C(N)=O)C(C)C)NC(=O)[C@H](Cc2c[nH]c4ccccc24)NC(=O)[C@H](CO)NC(=O)[C@H](Cc2c[nH]cn2)NC(=O)[C@H]([C@@H](C)O)NC(=O)[C@H](CCCNC(=N)N)NC(=O)[C@H](CO)NC3=O)NC(=O)[C@H](CCCCN)NC(=O)[C@H](CC(=O)O)NC(=O)[C@H](CC(N)=O)NC(=O)[C@H](CC(=O)O)NC(=O)[C@@H]2CCCN2C1=O [compound 738] (H-DCLGAMRKCIPDNDKCCRPNLVCSRTHSWCKYVF-NH2; disulfide 2-17, 9-23, 16-30) | 6.19 | 5.74 | 4.66 |
| CC[C@H](C)[C@@H]1NC(=O)[C@@H]2CSSC[C@@H]3NC(=O)[C@H](C(C)C)NC(=O)[C@H](CC(C)C)NC(=O)[C@H](CC(N)=O)NC(=O)[C@@H]4CCCN4C(=O)[C@H](CCCNC(=N)N)NC(=O)[C@H](CSSC[C@H](NC(=O)[C@@H](N)CC(=O)O)C(=O)N[C@@H](CC(C)C)C(=O)NCC(=O)N[C@@H](C)C(=O)N[C@@H](CCSC)C(=O)N[C@@H](CCCNC(=N)N)C(=O)N[C@@H](CCCCN)C(=O)N2)NC(=O)[C@H](CSSC[C@@H](C(=O)N[C@@H](CCCCN)C(=O)N[C@@H](Cc2ccc(O)cc2)C(=O)N[C@H](C(=O)N[C@@H](Cc2ccccc2)C(N)=O)C(C)C)NC(=O)[C@H](Cc2c[nH]c4ccccc24)NC(=O)[C@H](CCC(N)=O)NC(=O)[C@H](Cc2c[nH]cn2)NC(=O)[C@H]([C@@H](C)O)NC(=O)[C@H](CCCNC(=N)N)NC(=O)[C@H](CO)NC3=O)NC(=O)[C@H](CCCCN)NC(=O)[C@H](CC(=O)O)NC(=O)[C@H](CC(N)=O)NC(=O)[C@H](CC(=O)O)NC(=O)[C@@H]2CCCN2C1=O [compound 739] (H-DCLGAMRKCIPDNDKCCRPNLVCSRTHQWCKYVF-NH2; disulfide 2-17, 9-23, 16-30) | 6.20 | 5.66 | 4.69 |
| CC[C@H](C)[C@@H]1NC(=O)[C@@H]2CSSC[C@@H]3NC(=O)[C@H](C(C)C)NC(=O)[C@H](CC(C)C)NC(=O)[C@H](CC(N)=O)NC(=O)[C@@H]4CCCN4C(=O)[C@H](CCCNC(=N)N)NC(=O)[C@H](CSSC[C@H](NC(=O)[C@@H](N)CC(=O)O)C(=O)N[C@@H](CC(C)C)C(=O)NCC(=O)N[C@@H](C)C(=O)N[C@@H](CCSC)C(=O)N[C@@H](CCCNC(=N)N)C(=O)N[C@@H](CCCCN)C(=O)N2)NC(=O)[C@H](CSSC[C@@H](C(=O)N[C@@H](CCCCN)C(=O)N[C@@H](Cc2ccc(O)cc2)C(=O)N[C@H](C(=O)N[C@@H](Cc2ccccc2)C(N)=O)C(C)C)NC(=O)[C@H](Cc2c[nH]c4ccccc24)NC(=O)[C@H](Cc2cccnc2)NC(=O)[C@H](Cc2c[nH]cn2)NC(=O)[C@H]([C@@H](C)O)NC(=O)[C@H](CCCNC(=N)N)NC(=O)[C@H](CO)NC3=O)NC(=O)[C@H](CCCCN)NC(=O)[C@H](CC(=O)O)NC(=O)[C@H](CC(N)=O)NC(=O)[C@H](CC(=O)O)NC(=O)[C@@H]2CCCN2C1=O [compound 740] (H-DCLGAMRKCIPDNDKCCRPNLVCSRTH[3Pal]WCKYVF-NH2; disulfide 2-17, 9-23, 16-30) | 5.82 | < 5.30 | 4.51 |
| CC[C@H](C)[C@@H]1NC(=O)[C@@H]2CSSC[C@@H]3NC(=O)[C@H](C(C)C)NC(=O)[C@H](CC(C)C)NC(=O)[C@H](CC(N)=O)NC(=O)[C@@H]4CCCN4C(=O)[C@H](CCCNC(=N)N)NC(=O)[C@H](CSSC[C@H](NC(=O)[C@@H](N)CC(=O)O)C(=O)N[C@@H](CC(C)C)C(=O)NCC(=O)N[C@@H](C)C(=O)N[C@@H](CCSC)C(=O)N[C@@H](CCCNC(=N)N)C(=O)N[C@@H](CCCCN)C(=O)N2)NC(=O)[C@H](CSSC[C@@H](C(=O)N[C@@H](CCCCN)C(=O)N[C@@H](Cc2ccc(O)cc2)C(=O)N[C@H](C(=O)N[C@@H](Cc2ccccc2)C(N)=O)C(C)C)NC(=O)[C@H](Cc2c[nH]c4ccccc24)NC(=O)[C@H](Cc2ccc(N)cc2)NC(=O)[C@H](Cc2c[nH]cn2)NC(=O)[C@H]([C@@H](C)O)NC(=O)[C@H](CCCNC(=N)N)NC(=O)[C@H](CO)NC3=O)NC(=O)[C@H](CCCCN)NC(=O)[C@H](CC(=O)O)NC(=O)[C@H](CC(N)=O)NC(=O)[C@H](CC(=O)O)NC(=O)[C@@H]2CCCN2C1=O [compound 741] (H-DCLGAMRKCIPDNDKCCRPNLVCSRTH[Phe(4-NH2)]WCKYVF-NH2; disulfide 2-17, 9-23, 16-30) | 5.96 | 5.64 | 4.61 |
| CC[C@H](C)[C@@H]1NC(=O)[C@@H]2CSSC[C@@H]3NC(=O)[C@H](C(C)C)NC(=O)[C@H](CC(C)C)NC(=O)[C@H](CC(N)=O)NC(=O)[C@@H]4CCCN4C(=O)[C@H](CCCNC(=N)N)NC(=O)[C@H](CSSC[C@H](NC(=O)[C@@H](N)CC(=O)O)C(=O)N[C@@H](CC(C)C)C(=O)NCC(=O)N[C@@H](C)C(=O)N[C@@H](CCSC)C(=O)N[C@@H](CCCNC(=N)N)C(=O)N[C@@H](CCCCN)C(=O)N2)NC(=O)[C@H](CSSC[C@@H](C(=O)N[C@@H](CCCCN)C(=O)N[C@@H](Cc2ccc(O)cc2)C(=O)N[C@H](C(=O)N[C@@H](Cc2ccccc2)C(N)=O)C(C)C)NC(=O)[C@H](Cc2c[nH]c4ccccc24)NC(=O)[C@H](CCCCNC(C)=O)NC(=O)[C@H](Cc2c[nH]cn2)NC(=O)[C@H]([C@@H](C)O)NC(=O)[C@H](CCCNC(=N)N)NC(=O)[C@H](CO)NC3=O)NC(=O)[C@H](CCCCN)NC(=O)[C@H](CC(=O)O)NC(=O)[C@H](CC(N)=O)NC(=O)[C@H](CC(=O)O)NC(=O)[C@@H]2CCCN2C1=O [compound 742] (H-DCLGAMRKCIPDNDKCCRPNLVCSRTHK(Ac)WCKYVF-NH2; disulfide 2-17, 9-23, 16-30) | 5.96 | 5.60 | 4.64 |
